Results on 1 molecule are retold here after patent publication US6676954B2, “Controlled release compositions” (Rohm and Haas Company, priority 2000, dated 2004).

Each structure is given as a SMILES string. Marks after values point to notes of the source that are not given here.

Series [1] is described as follows: Relative release test: 3-isothiazolone released from the solid composition into water with 0.3% sodium diethylhexylsulfosuccinate (HPLC). It is filed as physicochemical. Particulars: no paint. The protocol: The amount of 3-isothiazolone compound released from each controlled release composition was determined according to the following general procedure. A weighed amount of controlled release composition (0.014 g, prepared as described in Example 1) was placed in a 250 mL sample jar. To the jar was then added 200 mL of water containing 0.3% of sodium diethylhexylsulfosuccinate. The solution was then gently stirred to ensure no foam was formed. Aliquots (0.5 mL) were taken at 5 and 24 hours and transferred to a microcentrifuge tube. Each aliquot was then centrifuged at 14,000 rpm for 3 minutes. The supernatant was then removed and analyzed by HPLC (high pressure liquid chromatography) for the amount of the 3-isothiazolone compound. The microcentrifuge tube was then washed with 0.5 mL of water containing 0.3% of sodium diethylhexylsulfosuccinate and the wash liquid added to the sample jar. This ensured that none of the particles removed during sampling was lost and that the volume in the jar remained constant.
The solid compositions were then evaluated using (1) the salt water leaching test as described in Example 3 and the relative release test (5-day) described in Example 2. […]

Series [2] can be described thus: Salt water (synthetic-seawater) leaching test: 14C-labelled ITA remaining in the marine paint film. The class given is physicochemical. The protocol:
The efficacy of the 3-isothiazolone/carbon-based adsorbent compositions of the present invention in a paint film was determined by a salt water (synthetic-seawater) leaching evaluation. An appropriate amount of 4,5-dichloro-2-n-octyl-3-isothiazolone (ITA), together with carbon-based adsorbent (C-1, C-2, C-3):
was added to 10 g of a marine antifouling paint formulation (2 different paint types, P-1 and P-2, see below) in a milling jar to provide a final 3-isothiazolone concentration of 2% based on total combined weight of the 3-isothiazolone/carbon-based adsorbent/paint formulation mixture. Paint films were then drawn on silanized microslides to a thickness of 0.076 mm (0.003 inch) for the rosin-based paint formulation (P-1) and to a thickness of 0.178 mm (0.007 inch) for the polishing type marine antifouling paint (P-2). The paint films were dried for 2 days and then the microslides were placed in a synthetic-seawater fish tank for 1 month. The synthetic-seawater was periodically circulated through a filter cartridge containing activated carbon and Celex™ 20 chelating agent (to remove 3-isothiazolone and copper ions). At various times the paint slides were removed and analyzed. The amount of 4,5-dichloro-2-n-octyl-3-isothiazolone remaining in the paint film after exposure to synthetic-seawater was determined by radioactive labeling (^14C-labeled 4,5-dichloro-2-n-octyl-3-isothiazolone).
The salt water leaching test and radioactive labeling measurements were conducted as follows: a small amount of ^14C-4,5-dichloro-2-n-octyl-3-isothiazolone was incorporated with ^12C-4,5-dichloro-2-n-octyl-3-isothiazolone into paint and the radioactivity of trace ^14C-molecules was measured by a Phosphorimager SI spectrometer (manufactured by Molecular Dynamics Co.); a ratio of 4×10^−5 for ^14C-4,5-dichloro-2-n-octyl-3-isothiazolone to every gram of ^12C-4,5-dichloro-2-n-octyl-3-isothiazolone was used.
The prepared slides were placed in synthetic-seawater prepared as follows: the following ingredients (20 liters deionized water, 1350 g NaCl, 225 g MgCl2.6H2O, and 321.6 g Na2B4O7.10H2O in 6 liters deionized water) were combined and adjusted to a pH of 8.2 with 1.0 M HCl solution, after which the total volume was made up to 30 liters with additional deionized water.
The solid compositions were then evaluated using (1) the salt water leaching test as described in Example 3 and the relative release test (5-day) described in Example 2. A summary of the performance of the three inorganic carriers (diatomaceous earth, aluminosilicate and magnesium silicate) relative to the carbon-based adsorbent (activated carbon) composition of the present invention is presented in Table 4.

Setting [3] is: paint P-1 (rosin-based), 2% ITA, synthetic seawater.
Where [4] appears, read: paint P-2 (polishing type), 2% ITA, synthetic seawater.

Take `CCCCCCCCn1sc(Cl)c(Cl)c1=O` [None, 4,5-dichloro-2-n-octyl-3-isothiazolone]: the “% 4,5-dichloro-2-n-octyl-3-isothiazolone retained (5-day surfactant solution)” value in series [1] (5-day release test, retention as stated in the text) was found to be 0%. Also, the “5 Day % Released” value in series [1] (carrier loaded with 30% ITA, 5-day relative release test in surfactant solution) is given as 100%. In series [2] (setting [3]), the “% ITA Retained in Paint Film, 0 Days” value is reported as 100%; the “% ITA Retained in Paint Film, 7 Days” value came to 82%; the “% ITA Retained in Paint Film, 30 Days” value was 70%. Moreover, the “% ITA Retained in Paint Film, 14 Days (interpolated)” value in series [2] (paint P-1 (rosin-based), 2% ITA, synthetic seawater, 14 days, values in are interpolated) is given as “(78) %”. In addition, the “Salt Water Leaching Test (28 Days) (% Retained in Paint Film)” value in series [2] (paint P-1, carrier loaded with 30% ITA, 28 days in synthetic seawater) turned out to be 64%. Further, in series [2] (setting [4]), the “% ITA Retained in Paint Film, 0 Days” value is listed as 100%; the “% ITA Retained in Paint Film, 7 Days” value is on record as 31-44* %; the “% ITA Retained in Paint Film, 30 Days” value came to 13%. Further, in series [2] (paint P-2 (polishing type), 2% ITA, synthetic seawater, 21 days), the “% ITA Retained in Paint Film, 21 Days” value is on record as 18%.
